Experimental data from patent publication US10245261B2, “Substituted indol-5-ol derivatives and their therapeutic applications” (NantBioScience, Inc., priority 2013, dated 2019).

Assays:
Test in all cases: KinaseProfiler kinase assay
Format in all cases: biochemical
FGFR2(N549H)(h) = FGFR2(N549H)(h) (Homo sapiens, UniProt P21802, N549H)
How it was run: (§1)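 Kinase activity is followed by incorporation of 33P from [γ-33P]ATP in 8 mM MOPS pH 7.0 with 10 mM Mg acetate and 0.2 mM EDTA over 40 min at room temperature. Inhibition is scaled between no-kinase and phosphopeptide control wells.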

PDK1(h) = PDK1(h) (Homo sapiens, UniProt O15530)
How it was run: as §1

PTK5(h) = PTK5(h) (Homo sapiens, UniProt P42685)
How it was run: as §1

JNK3(h) = JNK3(h) (Homo sapiens, UniProt P53779)
How it was run: as §1

STK33(h) = STK33(h) (Homo sapiens, UniProt Q9BYT3)
How it was run: as §1

TAK1(h) = TAK1(h) (Homo sapiens, UniProt O43318)
How it was run: as §1

cKit(V560G)(h) = cKit(V560G)(h) (Homo sapiens, UniProt P10721, V560G)
How it was run: as §1

MSK1(h) = MSK1(h) (Homo sapiens, UniProt O75582)
How it was run: as §1

PRK2(h) = PRK2(h) (Homo sapiens, UniProt Q16513)
How it was run: as §1

PEK(h) = PEK(h) (Homo sapiens, UniProt Q9NZJ5)
How it was run: as §1

MELK(h) = MELK(h) (Homo sapiens, UniProt Q14680)
How it was run: as §1

GRK7(h) = GRK7(h) (Homo sapiens, UniProt Q8WTQ7)
How it was run: as §1

MRCKα(h) = MRCKα(h) (Homo sapiens, UniProt Q5VT25)
How it was run: as §1

SRPK1(h) = SRPK1(h) (Homo sapiens, UniProt Q96SB4)
How it was run: as §1

[1] = target: PI3 Kinase (p110β/p85α)(m) (Mus musculus, UniProt Q8BTI9)
How it was run: as §1

EGFR(T790M, L858R)(h) = EGFR(T790M, L858R)(h) (Homo sapiens, UniProt P00533, L858R/T790M)
How it was run: as §1

PKCμ(h) = PKCμ(h) (Homo sapiens, UniProt Q15139)
How it was run: as §1

MKK6(h) = MKK6(h) (Homo sapiens, UniProt P52564)
How it was run: as §1

Met(Y1248H)(h) = Met(Y1248H)(h) (Homo sapiens, UniProt P08581, Y1230H)
How it was run: as §1

AMPKα2(h) = AMPKα2(h) (Homo sapiens, UniProt P54646)
How it was run: as §1

ALK4(h) = ALK4(h) (Homo sapiens, UniProt P36896)
How it was run: as §1

Lyn(m) = Lyn(m) (Mus musculus, UniProt P25911)
How it was run: as §1

SGK3(h) = SGK3(h) (Homo sapiens, UniProt Q96BR1)
How it was run: as §1

EphA1(h) = EphA1(h) (Homo sapiens, UniProt P21709)
How it was run: as §1

HIPK1(h) = HIPK1(h) (Homo sapiens, UniProt Q86Z02)
How it was run: as §1

Aurora-B(h) = Aurora-B(h) (Homo sapiens, UniProt Q96GD4)
How it was run: as §1

PRAK(h) = PRAK(h) (Homo sapiens, UniProt Q8IW41)
How it was run: as §1

Met(Y1248C)(h) = Met(Y1248C)(h) (Homo sapiens, UniProt P08581, Y1230C)
How it was run: as §1

PIP4K2α(h) = PIP4K2α(h) (Homo sapiens, UniProt P48426)
How it was run: as §1

AMPKα1(h) = AMPKα1(h) (Homo sapiens, UniProt Q13131)
How it was run: as §1

PKCε(h) = PKCε(h) (Homo sapiens, UniProt Q02156)
How it was run: as §1

Chain of EphA1(h) (P21709 26-976): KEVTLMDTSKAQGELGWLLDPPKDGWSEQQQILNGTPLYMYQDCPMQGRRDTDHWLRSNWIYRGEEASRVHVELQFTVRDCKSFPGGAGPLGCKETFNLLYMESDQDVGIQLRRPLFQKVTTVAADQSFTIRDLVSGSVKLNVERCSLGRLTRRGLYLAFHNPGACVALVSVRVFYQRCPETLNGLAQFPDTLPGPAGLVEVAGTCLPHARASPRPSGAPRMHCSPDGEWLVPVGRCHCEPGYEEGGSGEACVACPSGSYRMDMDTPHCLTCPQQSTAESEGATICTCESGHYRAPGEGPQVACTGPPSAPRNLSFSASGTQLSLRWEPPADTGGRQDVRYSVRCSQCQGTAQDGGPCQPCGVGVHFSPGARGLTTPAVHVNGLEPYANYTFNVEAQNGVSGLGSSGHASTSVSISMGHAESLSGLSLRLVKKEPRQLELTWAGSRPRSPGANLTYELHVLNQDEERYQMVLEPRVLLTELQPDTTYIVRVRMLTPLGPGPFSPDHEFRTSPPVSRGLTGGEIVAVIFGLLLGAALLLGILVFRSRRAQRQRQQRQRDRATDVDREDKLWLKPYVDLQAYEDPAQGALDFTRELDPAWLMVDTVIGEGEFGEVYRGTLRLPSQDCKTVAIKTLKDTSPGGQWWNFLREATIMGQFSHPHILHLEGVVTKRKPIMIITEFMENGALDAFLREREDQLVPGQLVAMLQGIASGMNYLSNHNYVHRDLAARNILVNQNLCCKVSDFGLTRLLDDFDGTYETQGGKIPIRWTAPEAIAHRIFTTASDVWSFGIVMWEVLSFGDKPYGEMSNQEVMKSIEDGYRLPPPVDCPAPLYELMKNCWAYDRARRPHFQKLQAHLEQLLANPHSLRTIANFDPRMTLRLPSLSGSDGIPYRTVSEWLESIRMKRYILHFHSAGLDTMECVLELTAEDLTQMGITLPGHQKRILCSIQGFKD
Chain of STK33(h) (Q9BYT3 whole entry): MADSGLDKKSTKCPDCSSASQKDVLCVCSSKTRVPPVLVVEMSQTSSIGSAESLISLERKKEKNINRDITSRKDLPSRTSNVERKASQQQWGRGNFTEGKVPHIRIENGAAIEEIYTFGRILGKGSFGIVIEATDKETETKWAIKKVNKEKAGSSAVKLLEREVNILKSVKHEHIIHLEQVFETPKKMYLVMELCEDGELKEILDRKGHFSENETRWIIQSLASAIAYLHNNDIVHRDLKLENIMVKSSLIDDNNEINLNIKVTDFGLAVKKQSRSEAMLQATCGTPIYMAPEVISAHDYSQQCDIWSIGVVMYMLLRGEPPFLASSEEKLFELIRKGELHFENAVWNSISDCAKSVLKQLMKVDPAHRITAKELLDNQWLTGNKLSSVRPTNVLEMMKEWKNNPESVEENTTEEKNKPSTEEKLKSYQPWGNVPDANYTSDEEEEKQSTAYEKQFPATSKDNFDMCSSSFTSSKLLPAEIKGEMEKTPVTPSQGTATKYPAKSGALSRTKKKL
Chain of PI3 Kinase (p110β/p85α)(m) (Q8BTI9 whole entry): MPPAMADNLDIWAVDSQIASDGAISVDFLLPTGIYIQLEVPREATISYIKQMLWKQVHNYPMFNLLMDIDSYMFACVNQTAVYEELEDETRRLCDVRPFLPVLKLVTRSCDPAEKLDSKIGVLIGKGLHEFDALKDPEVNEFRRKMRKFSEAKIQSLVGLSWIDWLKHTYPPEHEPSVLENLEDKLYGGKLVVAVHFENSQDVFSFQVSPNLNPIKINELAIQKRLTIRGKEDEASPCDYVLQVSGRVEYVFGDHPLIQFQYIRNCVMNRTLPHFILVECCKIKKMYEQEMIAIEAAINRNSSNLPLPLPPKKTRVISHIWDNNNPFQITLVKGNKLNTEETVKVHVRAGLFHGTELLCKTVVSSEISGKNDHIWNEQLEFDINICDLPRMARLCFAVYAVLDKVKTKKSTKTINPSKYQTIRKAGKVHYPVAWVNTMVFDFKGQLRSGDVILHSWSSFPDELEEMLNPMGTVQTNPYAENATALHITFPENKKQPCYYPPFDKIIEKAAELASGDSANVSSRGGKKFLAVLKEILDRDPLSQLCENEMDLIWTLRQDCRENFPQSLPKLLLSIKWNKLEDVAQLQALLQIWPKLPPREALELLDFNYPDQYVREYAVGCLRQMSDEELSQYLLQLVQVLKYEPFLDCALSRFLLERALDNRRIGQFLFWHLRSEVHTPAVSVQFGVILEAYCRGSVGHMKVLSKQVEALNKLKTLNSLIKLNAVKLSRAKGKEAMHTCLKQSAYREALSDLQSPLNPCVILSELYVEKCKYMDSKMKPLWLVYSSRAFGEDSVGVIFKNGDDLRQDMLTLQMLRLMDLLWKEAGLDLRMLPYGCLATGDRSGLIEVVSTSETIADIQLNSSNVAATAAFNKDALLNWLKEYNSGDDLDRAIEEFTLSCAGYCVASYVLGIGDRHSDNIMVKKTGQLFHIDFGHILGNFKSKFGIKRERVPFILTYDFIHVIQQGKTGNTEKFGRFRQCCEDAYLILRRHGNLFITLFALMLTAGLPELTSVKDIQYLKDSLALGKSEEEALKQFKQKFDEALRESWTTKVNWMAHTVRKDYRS
Chain of PI3 Kinase (p110β/p85α)(m) (P26450 whole entry partner): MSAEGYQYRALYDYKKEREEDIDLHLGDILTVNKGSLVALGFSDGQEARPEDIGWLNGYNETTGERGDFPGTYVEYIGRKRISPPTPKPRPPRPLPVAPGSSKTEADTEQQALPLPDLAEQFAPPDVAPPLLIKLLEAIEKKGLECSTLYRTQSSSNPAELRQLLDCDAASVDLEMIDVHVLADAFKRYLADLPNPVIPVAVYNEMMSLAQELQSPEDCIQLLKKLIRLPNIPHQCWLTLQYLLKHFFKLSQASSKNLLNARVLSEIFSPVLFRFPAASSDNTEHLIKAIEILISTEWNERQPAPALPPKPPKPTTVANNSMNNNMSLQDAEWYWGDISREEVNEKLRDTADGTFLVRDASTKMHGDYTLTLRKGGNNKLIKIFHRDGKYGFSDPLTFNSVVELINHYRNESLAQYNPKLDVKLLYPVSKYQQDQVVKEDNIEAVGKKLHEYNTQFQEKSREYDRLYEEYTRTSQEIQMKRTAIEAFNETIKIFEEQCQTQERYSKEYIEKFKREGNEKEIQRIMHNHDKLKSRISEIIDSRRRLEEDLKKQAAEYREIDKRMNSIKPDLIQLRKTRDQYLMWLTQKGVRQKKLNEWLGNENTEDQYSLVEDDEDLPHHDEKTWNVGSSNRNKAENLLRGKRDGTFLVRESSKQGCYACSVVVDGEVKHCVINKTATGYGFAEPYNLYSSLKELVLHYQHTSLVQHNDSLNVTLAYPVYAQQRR
Chain of HIPK1(h) (Q86Z02 whole entry): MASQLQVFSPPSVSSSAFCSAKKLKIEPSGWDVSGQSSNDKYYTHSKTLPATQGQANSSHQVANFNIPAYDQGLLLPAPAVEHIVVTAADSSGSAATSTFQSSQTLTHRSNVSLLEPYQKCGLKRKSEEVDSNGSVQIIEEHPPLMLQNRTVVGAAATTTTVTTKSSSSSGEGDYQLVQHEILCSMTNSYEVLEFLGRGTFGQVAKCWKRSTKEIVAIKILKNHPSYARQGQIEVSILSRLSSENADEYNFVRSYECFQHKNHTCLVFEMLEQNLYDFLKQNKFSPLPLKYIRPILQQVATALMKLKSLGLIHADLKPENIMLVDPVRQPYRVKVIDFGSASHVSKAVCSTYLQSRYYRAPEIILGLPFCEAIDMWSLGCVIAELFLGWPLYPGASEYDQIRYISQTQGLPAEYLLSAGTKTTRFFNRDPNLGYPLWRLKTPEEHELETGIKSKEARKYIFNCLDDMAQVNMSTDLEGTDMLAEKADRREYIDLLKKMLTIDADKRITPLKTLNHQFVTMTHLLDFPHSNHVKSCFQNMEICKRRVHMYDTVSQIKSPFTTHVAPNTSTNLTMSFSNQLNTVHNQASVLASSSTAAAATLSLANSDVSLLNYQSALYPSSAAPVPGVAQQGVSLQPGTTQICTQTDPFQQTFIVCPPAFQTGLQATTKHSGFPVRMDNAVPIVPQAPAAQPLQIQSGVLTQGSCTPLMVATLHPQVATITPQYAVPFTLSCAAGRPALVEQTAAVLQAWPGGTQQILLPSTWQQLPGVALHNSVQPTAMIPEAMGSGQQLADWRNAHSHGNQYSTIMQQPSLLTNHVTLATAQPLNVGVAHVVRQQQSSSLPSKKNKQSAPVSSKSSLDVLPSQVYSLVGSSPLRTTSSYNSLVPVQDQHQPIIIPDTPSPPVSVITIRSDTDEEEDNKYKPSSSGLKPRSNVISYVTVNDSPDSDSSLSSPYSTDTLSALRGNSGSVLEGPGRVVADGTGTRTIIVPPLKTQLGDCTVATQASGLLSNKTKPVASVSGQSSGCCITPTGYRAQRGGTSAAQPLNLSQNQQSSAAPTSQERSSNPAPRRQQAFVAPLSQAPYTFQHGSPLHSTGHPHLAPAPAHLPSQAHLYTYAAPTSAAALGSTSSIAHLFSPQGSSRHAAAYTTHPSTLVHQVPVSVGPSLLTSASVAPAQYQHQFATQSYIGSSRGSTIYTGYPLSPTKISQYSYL
Chain of MKK6(h) (P52564 whole entry): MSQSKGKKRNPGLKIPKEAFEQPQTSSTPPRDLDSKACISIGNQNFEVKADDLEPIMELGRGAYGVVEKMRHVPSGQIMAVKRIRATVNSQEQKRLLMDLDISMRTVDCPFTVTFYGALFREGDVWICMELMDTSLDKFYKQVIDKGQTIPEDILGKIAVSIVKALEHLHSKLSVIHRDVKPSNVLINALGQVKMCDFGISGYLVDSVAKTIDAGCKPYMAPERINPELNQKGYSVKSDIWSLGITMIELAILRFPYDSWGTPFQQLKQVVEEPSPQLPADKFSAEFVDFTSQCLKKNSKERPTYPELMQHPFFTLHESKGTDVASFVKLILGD

Row | SMILES | inhibition at 0.1 µM (FGFR2(N549H)(h)) [%] | inhibition at 0.1 µM (PDK1(h)) [%] | inhibition at 0.1 µM (PTK5(h)) [%] | inhibition at 0.1 µM (JNK3(h)) [%] | inhibition at 0.1 µM (STK33(h)) [%] | inhibition at 0.1 µM (TAK1(h)) [%] | inhibition at 0.1 µM (cKit(V560G)(h)) [%] | inhibition at 0.1 µM (MSK1(h)) [%] | inhibition at 0.1 µM (PRK2(h)) [%] | inhibition at 0.1 µM (PEK(h)) [%] | inhibition at 0.1 µM (MELK(h)) [%] | inhibition at 0.1 µM (GRK7(h)) [%] | inhibition at 0.1 µM (MRCKα(h)) [%] | inhibition at 0.1 µM (SRPK1(h)) [%] | inhibition at 0.1 µM [1] [%] | inhibition at 0.1 µM (EGFR(T790M, L858R)(h)) [%] | inhibition at 0.1 µM (PKCμ(h)) [%] | inhibition at 0.1 µM (MKK6(h)) [%] | inhibition at 0.1 µM (Met(Y1248H)(h)) [%] | inhibition at 0.1 µM (AMPKα2(h)) [%] | other results
1 | Cc1cc2c(F)c(Oc3nc(Nc4cc(C5CC5)[nH]n4)cc(N4CCN(C)CC4)n3)ccc2[nH]1 [Compound 10] | 100 | 13 | 72 | -1 | 8 | 38 | 89 | 96 | 51 | -4 | 69 | -4 | 2 | -11 | 0 | 53 | 7 | -5 | 69 | 90 | inhibition at 0.1 µM (ALK4(h)): 77%; inhibition at 0.1 µM (Lyn(m)): 98%; inhibition at 0.1 µM (SGK3(h)): -5%; inhibition at 0.1 µM (EphA1(h)): 78%; inhibition at 0.1 µM (HIPK1(h)): -6%; inhibition at 0.1 µM (Aurora-B(h)): 97%; inhibition at 0.1 µM (PRAK(h)): -24%; inhibition at 0.1 µM (Met(Y1248C)(h)): 57%; inhibition at 0.1 µM (PIP4K2α(h)): 1%; inhibition at 0.1 µM (AMPKα1(h)): 71%; inhibition at 0.1 µM (PKCε(h)): -10%
2 | Cc1cc2c(F)c(Oc3nc(Nc4cc(C5CC5)[nH]n4)cc(N4CCNCC4)n3)ccc2[nH]1 [Compound 11, N-(5-cyclopropyl-1H-pyrazol-3-yl)-2-((4-fluoro-2-methyl-1H-indol-5-yl)oxy)-6-(piperazin-1-yl)pyrimidin-4-amine] | 100 | 3 | 72 | -6 | -4 | 44 | 94 | 9 | 51 | -8 | 87 | 0 | -3 | -14 | 1 | 69 | -7 | -13 | 91 | 88 | inhibition at 0.1 µM (ALK4(h)): 81%; inhibition at 0.1 µM (Lyn(m)): 101%; inhibition at 0.1 µM (SGK3(h)): 4%; inhibition at 0.1 µM (EphA1(h)): 92%; inhibition at 0.1 µM (HIPK1(h)): -12%; inhibition at 0.1 µM (Aurora-B(h)): 98%; inhibition at 0.1 µM (PRAK(h)): 6%; inhibition at 0.1 µM (Met(Y1248C)(h)): 95%; inhibition at 0.1 µM (PIP4K2α(h)): -4%; inhibition at 0.1 µM (AMPKα1(h)): 72%; inhibition at 0.1 µM (PKCε(h)): 17%
